Experimental data published in ChEMBL document CHEMBL1159288, “Anti-AIDS agents, 21. Triterpenoid saponins as anti-HIV principles from fruits of Gleditsia japonica and Gymnocladus chinensis, and a structure-activity correlation” (J Nat Prod, 1995).

Columns and labels:
[1] = system: Human immunodeficiency virus 1; assay: Antiviral activity against HIV1 3B in human H9 cells assessed as inhibition of viral replication after 3 days by p24 antigen capture assay; assay type: functional, organism-based; details: Human immunodeficiency virus 1, 3B, H9, 72 h
H9 = assay: Cytotoxicity against human H9 cells after 3 days; assay type: cell-based; details: H9, 72 h
[2] = Therapeutic index, ratio of IC50 for human H9 cells to EC50 for HIV1 3B; assay type: cell-based; details: H9 cells (cytotoxicity) and HIV-1 3B (antiviral), read-out: TI

Structure (SMILES) | EC50 [1] [µM] | IC50 (H9) [µM] | selectivity ratio [2]
CCCC(=O)O[C@H]1CC[C@]2(C)[C@H]3CC=C4[C@H]5CC(C)(C)CC[C@]5(C(=O)OC)[C@H](O)C[C@@]4(C)[C@]3(C)CC[C@H]2C1(C)C | 27 | 27 | 1
CC1(C)CC[C@]2(C(=O)O)[C@H](O)C[C@]3(C)C(=CC[C@@H]4[C@@]5(C)CC[C@H](O[C@@H]6O[C@H](CO[C@@H]7OC[C@H](O)[C@H](O)[C@H]7O)[C@@H](O)[C@H](O)[C@H]6O)C(C)(C)[C@@H]5CC[C@]43C)[C@H]2C1 | 13 | 50 | 3.8
CC1(C)C[C@@H]2C3=CC[C@@H]4[C@@]5(C)C[C@H](O)[C@H](O[C@@H]6O[C@H](CO[C@@H]7OC[C@H](O)[C@H](O)[C@H]7O[C@@H]7OC[C@@H](O)[C@H](O)[C@H]7O)[C@@H](O)[C@H](O)[C@H]6O)[C@@](C)(CO)[C@@H]5CC[C@@]4(C)[C@]3(C)C[C@H](O)[C@@]23C[C@@H]1OC3=O | 100 | > 100 | > 1
CCCCC(=O)O[C@H]1CC[C@]2(C)[C@H]3CC=C4[C@H]5CC(C)(C)CC[C@]5(C(=O)OC)[C@H](OC(=O)CCCC)C[C@@]4(C)[C@]3(C)CC[C@H]2C1(C)C | 31 | 54 | 1.8
C[C@@H]1O[C@@H](OC[C@H]2O[C@@H](OC(=O)[C@]34CCC(C)(C)C[C@@H]3C3=CC[C@@H]5[C@@]6(C)CC[C@H](O[C@@H]7O[C@H](CO[C@@H]8OC[C@H](O)[C@H](O)[C@H]8O[C@@H]8OC[C@@H](O)[C@H](O)[C@H]8O)[C@@H](O)[C@H](O)[C@H]7O)C(C)(C)[C@@H]6CC[C@@]5(C)[C@]3(C)C[C@H]4O)[C@H](O[C@@H]3O[C@@H](C)[C@H](O[C@@H]4OC[C@@H](O)[C@H](O[C@@H]5OC[C@@H](O)[C@H](O)[C@H]5O)[C@H]4O)[C@@H](O)[C@H]3O)[C@@H](O)[C@@H]2O)[C@H](O)[C@H](O)[C@H]1O | > 100 | 43 | –
COC(=O)[C@]12CCC(C)(C)C[C@@H]1C1=CC[C@@H]3[C@@]4(C)CC[C@H](O[C@@H]5O[C@H](CO[C@@H]6OC[C@H](O)[C@H](O)[C@H]6O[C@@H]6OC[C@@H](O)[C@H](O)[C@H]6O)[C@@H](O)[C@H](O)[C@H]5O)C(C)(C)[C@@H]4CC[C@@]3(C)[C@]1(C)C[C@H]2O | 9.9 | 22 | 2.2
CCCC(=O)O[C@H]1CC[C@]2(C)[C@H]3CC=C4[C@H]5CC(C)(C)CC[C@]5(C(=O)OC)[C@H](OC(=O)CCC)C[C@@]4(C)[C@]3(C)CC[C@H]2C1(C)C | 15 | > 160 | > 11
CCCCC(=O)O[C@H]1CC[C@]2(C)[C@H]3CC=C4[C@H]5CC(C)(C)CC[C@]5(C(=O)OC)[C@H](O)C[C@@]4(C)[C@]3(C)CC[C@H]2C1(C)C | 30 | 180 | 5.9
CC1(C)CC[C@]2(C(=O)O)[C@H](O)C[C@]3(C)C(=CC[C@@H]4[C@@]5(C)CC[C@H](O[C@@H]6O[C@H](CO[C@@H]7OC[C@H](O)[C@H](O)[C@H]7O[C@@H]7OC[C@@H](O)[C@H](O)[C@H]7O)[C@@H](O)[C@H](O)[C@H]6O)C(C)(C)[C@@H]5CC[C@]43C)[C@H]2C1 | > 100 | 37 | –
CC1(C)CC[C@]2(C(=O)O)[C@H](O)C[C@]3(C)C(=CC[C@@H]4[C@@]5(C)CC[C@H](O)C(C)(C)[C@@H]5CC[C@]43C)[C@H]2C1 [ECHINOCYSTIC ACID] | 42 | 74 | –
CC1(C)CC[C@]2(C(=O)O)[C@H](O)C[C@]3(C)C(=CC[C@@H]4[C@@]5(C)CC[C@H](O)C(C)(C)[C@@H]5CC[C@]43C)[C@@H]2C1 [ECHINOCYSTIC ACID] | – | – | 1.8

Continued by falling EC50 [1], values first:

EC50 [1] [µM] | Structure (SMILES) | IC50 (H9) [µM] | selectivity ratio [2]
8 | CC1(C)C[C@@H]2C3=CC[C@@H]4[C@@]5(C)C[C@H](O)[C@H](O)[C@@](C)(CO)[C@@H]5CC[C@@]4(C)[C@]3(C)C[C@H](O)[C@@]23C[C@@H]1OC3=O | 40 | 5
5.1 | COC(=O)[C@]12CCC(C)(C)C[C@@H]1C1=CC[C@@H]3[C@@]4(C)CC[C@H](OC(C)=O)C(C)(C)[C@@H]4CC[C@@]3(C)[C@]1(C)C[C@H]2O | 7.6 | 1.5
3.1 | COC(=O)[C@]12CCC(C)(C)C[C@@H]1C1=CC[C@@H]3[C@@]4(C)CC[C@H](O)C(C)(C)[C@@H]4CC[C@@]3(C)[C@]1(C)C[C@H]2O [METHYL ECHINOCYSTATE] | 4.9 | 1.6
2.7 | C=C[C@](C)(CC/C=C(\C)C(=O)O[C@H]1C[C@@]2(C(=O)O[C@@H]3O[C@H](CO[C@@H]4O[C@@H](C)[C@H](O)[C@@H](O)[C@H]4O)[C@@H](O)[C@H](O)[C@H]3O[C@@H]3O[C@@H](C)[C@H](O[C@@H]4OC[C@@H](O)[C@H](O[C@@H]5OC[C@@H](O)[C@H](O)[C@H]5O)[C@H]4O)[C@@H](O)[C@H]3O)[C@H](CC1(C)C)C1=CC[C@@H]3[C@@]4(C)C[C@H](O)[C@H](O[C@@H]5O[C@H](CO[C@@H]6OC[C@H](O)[C@H](O)[C@H]6O[C@@H]6OC[C@@H](O)[C@H](O)[C@H]6O)[C@@H](O)[C@H](O)[C@H]5O)[C@@](C)(CO)[C@@H]4CC[C@@]3(C)[C@]1(C)C[C@@H]2O)O[C@@H]1OC[C@H](OC(=O)CC(C)C)[C@H](O[C@@H]2O[C@H](CO)[C@@H](O)[C@H](O)[C@H]2O)[C@H]1O [GYMNOCLADUS SAPONIN G] | 14 | 5.2
2.3 | CC(=O)O[C@H]1CC[C@]2(C)[C@H]3CC=C4[C@H]5CC(C)(C)CC[C@]5(C(=O)O)[C@H](OC(C)=O)C[C@@]4(C)[C@]3(C)CC[C@H]2C1(C)C | 13 | 5.4
1.1 | C=C[C@@](C)(O)CC/C=C(\C)C(=O)O[C@H]1[C@H](OC[C@H]2O[C@@H](OC(=O)[C@]34CCC(C)(C)C[C@@H]3C3=CC[C@@H]5[C@@]6(C)CC[C@H](O[C@@H]7O[C@H](CO[C@@H]8OC[C@H](O)[C@H](O)[C@H]8O[C@@H]8OC[C@@H](O)[C@H](O)[C@H]8O)[C@@H](O)[C@H](O)[C@H]7O)C(C)(C)[C@@H]6CC[C@@]5(C)[C@]3(C)C[C@H]4O)[C@H](O[C@@H]3O[C@@H](C)[C@H](O[C@@H]4OC[C@@H](O)[C@H](O[C@@H]5OC[C@@H](O)[C@H](O)[C@H]5O)[C@H]4O)[C@@H](O)[C@H]3O)[C@@H](O)[C@@H]2O)O[C@@H](C)[C@H](O)[C@H]1OC(=O)/C(=C/CC[C@](C)(O)C=C)CO [GLEDITSIA SAPONIN C] | 9.8 | 8.9
